From patent US8586603B2, “Aminotetraline derivatives” (priority 2009, dated 2013)
“And” between values parts separate entries of the source, which are not always exact repeats. Identical values can stand only once.

Experiments:
[1] = Pig skin permeation from saturated solution; format: in vitro ADME; details: pig leg skin 300-500 μm, phosphate buffer pH 6.2, 32° C., 48 hours, mean of cells 1-3
Experimental: (§1) The in vitro permeation of compound 1 through pig skin from saturated solution (f1) and from a patch (f2) was investigated.
For the permeation experiments horizontal cells with an acceptor and donor volume of approx. 23 mL of phosphate buffer pH 6.2 were used. The donor cells contained saturated solutions of compound 1 (2 mg/mL) in phosphate buffer pH 6.2. The experiments were performed at a temperature of 32° C. and the acceptor and donor media were slowly stirred. For the study pig leg skin with thickness of 300-500 μm were used. The experiments were performed in triplicate (n=3) over a period of 48 hours. During this time period six samples at different time points (after 2, 4, 6, 8, 24 and 48 hours) were taken. After each individual incubation period the concentration of the test compound in the acceptor medium was analysed by HPLC at 275 nm, 20° C., flow rate 2.0 mL/min in acetonitrile/water/TFA.
Evaluation: The concentration of the test compound in the acceptor medium was calculated by using an external standard solution with known concentration. Then the concentration of test compound was correlated with the incubation time by linear regression. The flux rate [μg/cm^2/h] is equivalent to the slope of the linear equation.

human 5-HT1a receptor = molecular target: T1, human 5-HT1a receptor (Homo sapiens, UniProt P08908); experiment: [35S]GTPγS functional assay; format: biochemical
T1 construct: expressed in transfected cells
T1 sequence (P08908 1-422): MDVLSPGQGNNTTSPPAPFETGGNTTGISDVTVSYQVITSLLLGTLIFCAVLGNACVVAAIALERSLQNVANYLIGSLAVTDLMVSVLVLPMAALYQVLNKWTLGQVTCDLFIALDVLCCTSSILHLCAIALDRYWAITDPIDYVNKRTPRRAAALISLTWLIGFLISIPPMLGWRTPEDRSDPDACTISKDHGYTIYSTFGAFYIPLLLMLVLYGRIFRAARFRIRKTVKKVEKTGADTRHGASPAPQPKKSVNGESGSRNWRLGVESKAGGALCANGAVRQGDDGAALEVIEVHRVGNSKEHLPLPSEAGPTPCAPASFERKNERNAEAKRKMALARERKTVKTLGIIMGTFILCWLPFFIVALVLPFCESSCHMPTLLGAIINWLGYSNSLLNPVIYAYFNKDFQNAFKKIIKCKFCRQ
Experimental: Specific binding of [^35S]GTPγS is stimulated by activation of the stably expressed human 5-HT1a receptor in a dose-dependent way by agonists for this GPCR and is determined by measuring the radioactive label of the membrane. Non-linear regression analysis of the resulting dose-response curves yields the EC50 value in [nM] representing the half maximal concentration which is necessary to activate the receptor completely.

[2] = Stability in PBS buffer pH 7.4 and SGF with 0.5% DMSO; format: physicochemical; details: 37° C.
Experimental: 5 μL DMSO stock solution of compound 1 (2 mg/mL) were diluted with […] PBS buffer pH 7.4 and 995 μL Simulated Gastric Fluid (SGF). After dilution the samples were immediately analysed by HPLC. After the initial injection, each sample solution was repeatedly injected over a period of approximately 12 hours.

[3] = test system: formalin-induced hind paw licking in CD-1 mice; experiment: Animal pain test (formalin assay); format: in vivo; details: for % Inhibition of hind paw licking time: vs vehicle
Experimental: The formalin test is being widely accepted as a valid basic model of persistent clinical pain, and may indicate a compound's efficacy in neuropathic and/or inflammatory pain conditions.
Compound 1 and a comparator (gabapentin 100 mg/kg) were administered to groups of 5 or 10 CD-1 (Crl.) derived male mice weighing 24±2 g. Test substances and vehicle (0.2% HPMC/0.9% NaCl) were each administered by intraperitoneal injection (gabapentin) or oral gavage (compound 1) 15 or 30 minutes before subplantar injection of formalin (0.02 ml, 2% solution). Reduction of the formalin-induced hind paw licking time recorded at 5-minute interval during the following 0- to 35-minute after formalin injection by 50 percent or more (≧50%) indicated significant analgesic activity. Also, statistical analysis was performed by using one-way ANOVA followed by Dunnett's test to compare the test compound-treated and vehicle control groups. Significance is considered at P<0.05 level. Acute toxic symptoms and autonomic effects were observed after the administration of test compounds.

[4] = Pig skin permeation from patch; format: in vitro ADME
Experimental: as §1
For this permeation experiments Franz diffusion cells with a diffusion area of 2.54 cm^2 and an acceptor volume of approx. 100 mL were used. For the study pig leg skin with a thickness of 300-500 μm was used. The permeation experiments were performed at a temperature of 32° C. and the acceptor medium (phosphate buffer pH 6.2) was slowly stirred. A patch of 2.54 cm^2 area comprising about 5 wt % of compound 1 in a hydrophobic adhesive layer was fixed on the skin surface. The experiments were performed in triplicate (n=3) over a period of 48 hours. During this time period six samples at different time points (after 2, 4, 6, 8, 24 and 48 hours) were taken. After each individual incubation period the concentration of the test compound in the acceptor medium was analysed by HPLC at 275 nm, 20° C., 2.0 mL/min in acetonitrile/water/TFA.

[5] = 5 mg/kg oral, interval 0-5 minutes
[6] = 5 mg/kg oral, interval 5-10 minutes
[7] = 5 mg/kg oral, interval 10-15 minutes
[8] = 5 mg/kg oral, interval 15-20 minutes
[9] = 5 mg/kg oral, interval 20-25 minutes
[10] = 5 mg/kg oral, interval 25-30 minutes
[11] = 5 mg/kg oral, interval 30-35 minutes
[12] = 10 mg/kg oral, interval 0-5 minutes
[13] = 10 mg/kg oral, interval 5-10 minutes
[14] = 10 mg/kg oral, interval 20-25 minutes
[15] = 10 mg/kg oral, interval 25-30 minutes
[16] = 10 mg/kg oral, interval 30-35 minutes

CCCN(CCc1cccs1)C1CCc2cccc(O)c2C1 (stereo not shown) [Compound 1, N-(8-Hydroxytetralin-2-yl)-N-propyl-N-[2-(2-thienyl)ethyl]amine]
average flux rate from saturated solution [1]: 4.0 μg/cm^2/h | agonist activity at the human 5-HT1a receptor (human 5-HT1a receptor; in words): full agonist activity | EC50 (human 5-HT1a receptor; mean values of 2-8 individual experiments): 0.65 to 1.9 nM and 1.9 nM | Emax (human 5-HT1a receptor; read-out: intrinsic activity [% rel. to serotonin]): 103% | degradation (stability) ([2]; PBS buffer pH 7.4, 12 hours): No degradation | degradation (stability) ([2]; simulated gastric fluid (pH 1-2), 12 hours): No degradation | analgesic effect ([3]; 1 mg/kg oral administration): no analgesic effect | analgesic effect ([3]; 3 mg/kg oral administration): some effect | Hind Paw Licking Times [3, 5]: 63.4 ± 7.2 s | % Inhibition of hind paw licking time [3, 5]: (18%) | Hind Paw Licking Times [3, 6]: 10.2 ± 3.9 s | % Inhibition of hind paw licking time [3, 6]: (0%) | Hind Paw Licking Times [3, 7]: 25.1 ± 11.6 s | % Inhibition of hind paw licking time [3, 7]: (54%) | Hind Paw Licking Times [3, 8]: 56.7 ± 18 s | % Inhibition of hind paw licking time [3, 8]: (44%) | Hind Paw Licking Times [3, 9]: 54.7 ± 9.4 s | % Inhibition of hind paw licking time [3, 9]: (12%) | Hind Paw Licking Times [3, 10]: 54.7 ± 15.1 s | % Inhibition of hind paw licking time [3, 10]: (0%) | Hind Paw Licking Times [3, 11]: 24.7 ± 9.8 s | % Inhibition of hind paw licking time [3, 11]: (0%) | analgesic effect ([3]; 10 mg/kg oral administration, 10-20 minutes period): significant analgesic effect | Hind Paw Licking Times [3, 12]: 64.3 ± 7.3 s | % Inhibition of hind paw licking time [3, 12]: (16%) | Hind Paw Licking Times [3, 13]: 0 ± 0 s | % Inhibition of hind paw licking time [3, 13]: (100%) | % Inhibition of hind paw licking time ([3]; 10 mg/kg oral, interval 10-15 minutes): (96%) | % Inhibition of hind paw licking time ([3]; 10 mg/kg oral, interval 15-20 minutes): (69%) | Hind Paw Licking Times [3, 14]: 37.5 ± 13.6 s | % Inhibition of hind paw licking time [3, 14]: (40%) | Hind Paw Licking Times [3, 15]: 29.9 ± 12.7 s | % Inhibition of hind paw licking time [3, 15]: (0%) | Hind Paw Licking Times [3, 16]: 12.8 ± 8.8 s | % Inhibition of hind paw licking time [3, 16]: (10%) | activity in an oral animal model of pain ([3]; oral): active | penetration of skin in an in vitro skin model of transdermal penetration ([4]; in words): able to penetrate skin | average flux rate from patch ([4]; patch 2.54 cm^2, about 5 wt % compound 1 in hydrophobic adhesive layer, pig leg skin, 32° C., 48 hours): 4.0 μg/cm^2/h | Measured Flux Rate (patch) ([4]; patch, pig skin): 4.01 μg μg per cm^2/h | Extrapolated daily flux rate ([4]; per 30 cm^2 patch/24 hrs): 2.88 mg
